Results as given in patent US5714490A, “Tetrahydrofuran antifungals” (Schering Corporation, priority 1995, dated 1998).

Columns and labels:
[1] = system: Aspergillus; assay: in vitro broth dilution MIC against Aspergillus; format: cell-based, Aspergillus flavus, fumigatus and other species; details: 37 strains
Experimental: (§1) The in vitro antifungal activity tests were performed via conventional broth dilution methods in Sabouraud dextrose broth ("SDB") medium and Eagles Minimum Essential Medium ("EMEM") against a large number of fungi. Minimum Inhibitory Concentrations ("MICs") were measured after 24, 48 and 72 hour tests. In many cases, Minimum Fungicidial Concentrations ("MFCS") were measured after 48 and 72 hours.

[2] = system: Candida albicans; assay: in vitro broth dilution MIC against Candida albicans; format: cell-based; details: 26 strains
Experimental: as §1

[3] = system: Candida krusei; assay: in vitro broth dilution MIC against Candida krusei; format: cell-based; details: 16 strains
Experimental: as §1

[4] = system: Candida tropicalis & stellatoidea; assay: in vitro broth dilution MIC against Candida tropicalis & stellatoidea; format: cell-based; details: 5 strains
Experimental: as §1

[5] = system: Candida glabrata; assay: in vitro broth dilution MIC against Candida glabrata; format: cell-based; details: 9 strains
Experimental: as §1

[6] = system: Cryptococcus neoformans; assay: in vitro broth dilution MIC against Cryptococcus neoformans; format: cell-based; details: 3 strains
Experimental: as §1

[7] = system: Dermatophytes; assay: in vitro broth dilution MIC against Dermatophytes; format: cell-based, T. rubrum, T. mentagrophytes, and T. tonsurans; details: 6 strains
[8] = system: Aspergillus; assay: in vitro broth dilution MFC against Aspergillus; format: cell-based, Aspergillus flavus, fumigatus and other species; details: 37 strains
Experimental: as §1

[9] = system: Candida krusei; assay: in vitro broth dilution MFC against Candida krusei; format: cell-based; details: 16 strains
Experimental: as §1

[10] = system: Candida glabrata; assay: in vitro broth dilution MFC against Candida glabrata; format: cell-based; details: 9 strains
Experimental: as §1

[11] = system: Cryptococcus neoformans; assay: in vitro broth dilution MFC against Cryptococcus neoformans; format: cell-based; details: 3 strains
Experimental: as §1

[12] = system: Dermatophytes; assay: in vitro broth dilution MFC against Dermatophytes; format: cell-based, T. rubrum, T. mentagrophytes, and T. tonsurans; details: 6 strains
Experimental: as §1

[13] = system: Candida albicans; details: 26 strains
Experimental: as §1

[14] = system: Candida tropicalis & stellatoidea; details: 5 strains
Experimental: as §1

[15] = serum levels, half life and tissue distribution after oral dosing; format: in vivo, mice, rats, dogs and monkeys
[16] = system: cytochrome P-450 liver drug metabolizing enzymes; assay: induction of liver drug metabolizing enzymes in an in vivo rat model; details: oral administration

Structure (SMILES): CC[C@H]([C@H](C)O)n1ncn(-c2ccc(N3CCN(c4ccc(OC[C@@H]5CO[C@@](Cn6cncn6)(c6ccc(F)cc6F)C5)cc4)CC3)cc2)c1=O
- PERCENTAGE OF STRAINS WITH MICs ≤1 MCG/ML [1]: 100 PERCENTAGE
- PERCENTAGE OF STRAINS WITH MICs ≤1 MCG/ML [2]: 100 PERCENTAGE
- PERCENTAGE OF STRAINS WITH MICs ≤1 MCG/ML [3]: 100 PERCENTAGE
- PERCENTAGE OF STRAINS WITH MICs ≤1 MCG/ML [4]: 100 PERCENTAGE
- PERCENTAGE OF STRAINS WITH MICs ≤1 MCG/ML [5]: 22 PERCENTAGE
- PERCENTAGE OF STRAINS WITH MICs ≤1 MCG/ML [6]: 100 PERCENTAGE
- PERCENTAGE OF STRAINS WITH MICs ≤1 MCG/ML [7]: 100 PERCENTAGE
- PERCENTAGE OF STRAINS WITH MFCs ≤1 MCG/ML [8]: 50 PERCENTAGE
- PERCENTAGE OF STRAINS WITH MFCs ≤1 MCG/ML [9]: 88 PERCENTAGE
- PERCENTAGE OF STRAINS WITH MFCs ≤1 MCG/ML [10]: 22 PERCENTAGE
- PERCENTAGE OF STRAINS WITH MFCs ≤1 MCG/ML [11]: 100 PERCENTAGE
- PERCENTAGE OF STRAINS WITH MFCs ≤1 MCG/ML [12]: 67 PERCENTAGE
- PERCENTAGE OF STRAINS WITH MFCs ≤1 MCG/ML [13]: 100 PERCENTAGE
- PERCENTAGE OF STRAINS WITH MFCs ≤1 MCG/ML [14]: 100 PERCENTAGE

Structure (SMILES): CC[C@@H]([C@@H](C)O)n1ncn(-c2ccc(N3CCN(c4ccc(OC[C@@H]5CO[C@@](Cn6cncn6)(c6ccc(F)cc6F)C5)cc4)CC3)cc2)c1=O
- PERCENTAGE OF STRAINS WITH MICs ≤1 MCG/ML [5]: 33 PERCENTAGE
- PERCENTAGE OF STRAINS WITH MFCs ≤1 MCG/ML [8]: 89 PERCENTAGE
- PERCENTAGE OF STRAINS WITH MFCs ≤1 MCG/ML [9]: 100 PERCENTAGE
- PERCENTAGE OF STRAINS WITH MFCs ≤1 MCG/ML [12]: 100 PERCENTAGE

Structure (SMILES): CC[C@@H]([C@H](C)O)n1ncn(-c2ccc(N3CCN(c4ccc(OC[C@@H]5CO[C@@](Cn6cncn6)(c6ccc(F)cc6F)C5)cc4)CC3)cc2)c1=O [drawing 20]
- serum half lives ([15]; O.D. dosing): very long serum half lives
- tissue distribution ([15]; O.D. dosing): good tissue distribution
- serum levels compared to azoles of similiar structure ([15]; oral dosing, methyl cellulose formulation, mice, rats, dogs and monkeys): consistently higher serum levels
- induction of cytochrome P-450 liver drug metabolizing enzymes [16]: not inducers

Structure (SMILES): CC[C@@H]([C@H](C)O)n1ncn(-c2ccc(N3CCN(c4ccc(OC[C@@H]5CO[C@@](Cn6cncn6)(c6ccc(F)cc6F)C5)cc4)CC3)cc2)c1=O [drawing 22]
- PERCENTAGE OF STRAINS WITH MFCs ≤1 MCG/ML [8]: 62 PERCENTAGE
- PERCENTAGE OF STRAINS WITH MFCs ≤1 MCG/ML [9]: 94 PERCENTAGE
- PERCENTAGE OF STRAINS WITH MFCs ≤1 MCG/ML [12]: 83 PERCENTAGE
